According to PubChem BioAssay (NCI):
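Exposure lasted 48 hours, with cells grown in 96-well plates and compounds tested at five concentrations. Abbreviation: GI50, concentration required for 50% inhibition of growth. TGI: total growth inhibition.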

What was measured:
Test in all cases: NCI tumour cell line growth inhibition, 48 h
HCT-15 colon = system: HCT-15 colon
U251 CNS = system: U251 CNS
RPMI-8226 leukemia = system: RPMI-8226 leukemia
SK-OV-3 ovarian = system: SK-OV-3 ovarian
NCI-H23 lung = system: NCI-H23 lung
KM12 colon = system: KM12 colon
SW-620 colon = system: SW-620 colon
HS 578T breast = system: HS 578T breast
EKVX NSCLC = system: EKVX NSCLC
CAKI-1 renal = system: CAKI-1 renal
UACC-62 melanoma = system: UACC-62 melanoma
COLO 205 colon = system: COLO 205 colon
HL-60(TB) leukemia = system: HL-60(TB) leukemia
A498 renal = system: A498 renal
CCRF-CEM leukemia = system: CCRF-CEM leukemia
MDA-MB-231 breast = system: MDA-MB-231 breast
SF-295 CNS = system: SF-295 CNS
PC-3 prostate = system: PC-3 prostate
NCI-H522 lung = system: NCI-H522 lung
786-0 renal = system: 786-0 renal
MOLT-4 leukemia = system: MOLT-4 leukemia
MDA-MB-435 = system: MDA-MB-435
M14 melanoma = system: M14 melanoma
OVCAR-8 ovarian = system: OVCAR-8 ovarian
OVCAR-3 ovarian = system: OVCAR-3 ovarian
UACC-257 melanoma = system: UACC-257 melanoma
NCI-H460 lung = system: NCI-H460 lung
SR leukemia = system: SR leukemia
NCI-H226 lung = system: NCI-H226 lung
SN12C renal = system: SN12C renal
HCT-116 colon = system: HCT-116 colon
SNB-19 CNS = system: SNB-19 CNS
SF-539 CNS = system: SF-539 CNS
NCI/ADR-RES ovarian = system: NCI/ADR-RES ovarian
HT29 colon = system: HT29 colon
HOP-62 NSCLC = system: HOP-62 NSCLC
SK-MEL-28 melanoma = system: SK-MEL-28 melanoma
SNB-75 CNS = system: SNB-75 CNS
SF-268 CNS = system: SF-268 CNS
ACHN renal = system: ACHN renal
OVCAR-5 ovarian = system: OVCAR-5 ovarian
T-47D breast = system: T-47D breast
MALME-3M melanoma = system: MALME-3M melanoma
RXF 393 renal = system: RXF 393 renal
LOX IMVI melanoma = system: LOX IMVI melanoma
OVCAR-4 ovarian = system: OVCAR-4 ovarian
MCF7 breast = system: MCF7 breast
HCC-2998 colon = system: HCC-2998 colon
SK-MEL-5 melanoma = system: SK-MEL-5 melanoma
IGROV1 ovarian = system: IGROV1 ovarian
K-562 leukemia = system: K-562 leukemia
HOP-92 NSCLC = system: HOP-92 NSCLC
DU-145 prostate = system: DU-145 prostate
BT-549 breast = system: BT-549 breast
SK-MEL-2 melanoma = system: SK-MEL-2 melanoma
A549 NSCLC = system: A549 NSCLC
TK-10 renal = system: TK-10 renal
UO-31 renal = system: UO-31 renal

## C=C(C)[C@@H]1/C=C(/C(C)C)CC[C@@]2(C)OC2CC[C@H](C)CC1=O (stereo not given in full)
HCT-15 colon
  GI50: 38.6 µM
  TGI: > 68.6 µM
U251 CNS
  GI50: 27.6 µM
  TGI: > 62.2 µM
RPMI-8226 leukemia
  GI50: 20.1 µM
  TGI: 54.1 µM
SK-OV-3 ovarian
  GI50: > 100 µM
  TGI: > 100 µM
NCI-H23 lung
  GI50: 21.2 µM
  TGI: 43.9 µM
KM12 colon
  GI50: 18.6 µM
  TGI: 39.7 µM
SW-620 colon
  GI50: 25.4 µM
  TGI: 65.7 µM
HS 578T breast
  GI50: 46 µM
  TGI: > 100 µM
EKVX NSCLC
  GI50: 52.1 µM
  TGI: > 100 µM
CAKI-1 renal
  GI50: 24.1 µM
  TGI: 53.8 µM
UACC-62 melanoma
  GI50: > 100 µM
  TGI: > 100 µM
COLO 205 colon
  GI50: 24.9 µM
  TGI: > 61 µM
HL-60(TB) leukemia
  GI50: 25 µM
  TGI: 76.2 µM
A498 renal
  GI50: 31.6 µM
  TGI: > 93.2 µM
CCRF-CEM leukemia
  GI50: 20.3 µM
  TGI: 52.3 µM
MDA-MB-231 breast
  GI50: 19.3 µM
  TGI: 49.5 µM
SF-295 CNS
  GI50: 27.4 µM
  TGI: > 71.6 µM
PC-3 prostate
  GI50: 22.2 µM
  TGI: 54.3 µM
NCI-H522 lung
  GI50: 31.2 µM
  TGI: > 93.5 µM
786-0 renal
  GI50: > 42.8 µM
  TGI: > 59.6 µM
MOLT-4 leukemia
  GI50: 16.3 µM
  TGI: 40.9 µM
MDA-MB-435
  GI50: 26.6 µM
  TGI: 71.6 µM
M14 melanoma
  GI50: 30.8 µM
  TGI: > 62.8 µM
OVCAR-8 ovarian
  GI50: 33.9 µM
  TGI: > 70.5 µM
OVCAR-3 ovarian
  GI50: 24.8 µM
  TGI: 66.1 µM
UACC-257 melanoma
  GI50: 47.6 µM
  TGI: > 100 µM
NCI-H460 lung
  GI50: 18.7 µM
  TGI: 37.7 µM
SR leukemia
  GI50: 2.18 µM
NCI-H226 lung
  GI50: > 38.8 µM
  TGI: > 66.9 µM
SN12C renal
  GI50: 21 µM
  TGI: 46 µM
HCT-116 colon
  GI50: 17.3 µM
  TGI: 31.7 µM
SNB-19 CNS
  GI50: 60 µM
  TGI: > 100 µM
SF-539 CNS
  GI50: 21.9 µM
  TGI: 42.7 µM
NCI/ADR-RES ovarian
  GI50: 25.4 µM
  TGI: 59.8 µM
HT29 colon
  GI50: 31.6 µM
  TGI: 98.8 µM
HOP-62 NSCLC
  GI50: 30.3 µM
  TGI: > 57.9 µM
SK-MEL-28 melanoma
  GI50: 59.3 µM
  TGI: > 100 µM
SNB-75 CNS
  GI50: > 100 µM
  TGI: > 100 µM
SF-268 CNS
  GI50: 37.7 µM
  TGI: > 100 µM
ACHN renal
  GI50: 27.5 µM
  TGI: > 55 µM
OVCAR-5 ovarian
  GI50: > 43.5 µM
  TGI: > 63.5 µM
T-47D breast
  GI50: 27.4 µM
  TGI: > 80.3 µM
MALME-3M melanoma
  GI50: 35.3 µM
  TGI: > 100 µM
RXF 393 renal
  GI50: 3.37 µM
  TGI: > 49.1 µM
LOX IMVI melanoma
  GI50: 22.4 µM
  TGI: > 57.7 µM
OVCAR-4 ovarian
  GI50: 73.8 µM
  TGI: > 100 µM
MCF7 breast
  GI50: 27.7 µM
  TGI: > 63.8 µM
HCC-2998 colon
  GI50: > 44.4 µM
  TGI: > 65.9 µM
SK-MEL-5 melanoma
  GI50: 19.4 µM
  TGI: 37.9 µM
IGROV1 ovarian
  GI50: 24.7 µM
  TGI: > 63.3 µM
K-562 leukemia
  GI50: 19.7 µM
  TGI: 58.6 µM
HOP-92 NSCLC
  GI50: 26.3 µM
  TGI: > 76.7 µM
DU-145 prostate
  GI50: 19.4 µM
  TGI: 36 µM
BT-549 breast
  GI50: 38.8 µM
  TGI: > 100 µM
SK-MEL-2 melanoma
  GI50: 52.1 µM
  TGI: > 100 µM
A549 NSCLC
  GI50: 28.8 µM
  TGI: > 100 µM
TK-10 renal
  GI50: 27.6 µM
  TGI: > 79.4 µM
UO-31 renal
  GI50: 23.2 µM
  TGI: > 55.7 µM
